# Measured values as given in patent US20240139147A1, “METHOD FOR IMPROVING BIOAVAILABILITY OF NAD+ DERIVATIVES” (HOBOOMLIFE BIO-TECHNOLOGY (SHENZHEN) CO., LTD., priority 2022, published 2024).
# What was measured:
# Assay type in all cases: in vivo
# Conditions in all cases: SD rats, intragastric; for NAD+ level in blood: 100 mg/kg NMN and/or 10 mg/kg quercetin
# [1] = test system: NAD+; assay: Increasing the level of NAD+ by controlled-release NMN microspheres 2, 9, 10, blood NAD+ by HPLC (Example 15)
# Protocol: (§1) 28 SD rats weighing about 200 g were purchased, and an experiment was carried out after one week of adaptive feeding. The 28 rats were divided into 7 groups, 4 rats per group (half male and half female). The rats in group 1 were not treated, the rats in group 2 were administered intragastrically with 100 mg/kg of NMN, the rats in group 3 were administered intragastrically with 10 mg/kg of quercetin, the rats in group 4 were administered intragastrically with 100 mg/kg of NMN and 10 mg/kg quercetin at the same time, the rats in group 5 were administered intragastrically with the controlled-release NMN microspheres 2 containing 100 mg/kg of NMN and 10 mg/kg of quercetin, the rats in group 6 were administered intragastrically with the controlled-release NMN microspheres 9 containing 100 mg/kg of NMN and 10 mg/kg of quercetin, and the rats in group 7 were administered intragastrically with the controlled-release NMN microspheres 10 containing 100 mg/kg of NMN and 10 mg/kg of quercetin.
# Blood was collected from each rat in the groups via the tail vein at time points of 2 h, 2.5 h, 3 h, 3.5 h, 4 h, 4.5 h, 5 h, 5.5 h, and 6 h, respectively, after intragastric administration of corresponding microspheres, and 0.1 mL of blood was collected each time by each rat. After the vein blood collected from each rat in the groups at each time point was treated, the NAD+ level in the blood sample was tested by high performance liquid chromatography (HPLC). The test results of 4 rats in each group were averaged. […] There are time differences between a peak of the releasing of quercetin and a peak of the releasing of NMN in the controlled-release NMN microsphere 2, the controlled-release NMN microsphere 9, and the controlled-release NMN microsphere 10 that are prepared based on different mass ratios of quercetin (the CD38 inhibitor) to the excipient and different mass ratios of NMN to the excipient, and the time differences between a peak of the releasing of quercetin and a peak of the releasing of NMN in the three microspheres are consistent and are all about 0.5-1.5 h.
# [2] = test system: NAD+; assay: Increasing the level of NAD+ by controlled-release NMN microspheres 2, 5, 6, blood NAD+ by HPLC (Example 9)
# Protocol: as §1, with “10 mg/kg of quercetin at” for “10 mg/kg quercetin at”, “NMN microspheres 5 containing 100” for “NMN microspheres 9 containing 100”, “NMN microspheres 6 containing 100” for “NMN microspheres 10 containing 100”
# Blood was collected from the rat in each groups via the tail vein at time points of 2 h, 2.5 h, 3 h, 3.5 h, 4 h, 4.5 h, 5 h, 5.5 h, and 6 h, respectively, after intragastric administration of corresponding microspheres, and 0.1 mL of blood was collected each time by each rat. After the vein blood collected from the rat in each groups at each time point was treated, the NAD+ level in the blood sample was tested by high performance liquid chromatography (HPLC). The test results of 4 rats in each group were averaged. […] There are time differences between a peak of the releasing of quercetin and a peak of the releasing of NMN in the controlled-release NMN microsphere 2, the controlled-release NMN microsphere 5, and the controlled-release NMN microsphere 6 that are prepared based on difference mass ratios of quercetin (the CD38 inhibitor) to NMN, and the time differences between a peak of the releasing of quercetin and a peak of the releasing of NMN in the three microspheres are consistent and are all about 0.5-1.5 h.
# [3] = test system: NAD+; assay: Increasing the level of NAD+ by controlled-release NMN microspheres 1-3, blood NAD+ by HPLC (Example 3)
# Protocol: as §1, with “10 mg/kg of quercetin at” for “10 mg/kg quercetin at”, “the controlled-release microspheres 1” for “the controlled-release NMN microspheres 2”, “controlled-release microspheres 1 containing 100” for “NMN microspheres 2 containing 100”, “NMN microspheres 2 containing 100” for “NMN microspheres 9 containing 100”, “NMN microspheres 3 containing 100” for “NMN microspheres 10 containing 100”
# Blood was collected from the rat in each groups via the tail vein at time points of 2 h, 2.5 h, 3 h, 3.5 h, 4 h, 4.5 h, 5 h, 5.5 h, and 6 h, respectively, after intragastric administration of corresponding microspheres, and 0.1 mL of blood was collected each time by each rat. After the vein blood collected from the rat in each groups at each time point was treated, the NAD+ level in the blood sample was tested by high performance liquid chromatography (HPLC). The test results of 4 rats in each group were averaged. […] Different parameters are set in the preparation processes of the controlled-release NMN microsphere 1, the controlled-release NMN microsphere 2, and the controlled-release NMN microsphere 3, so the time intervals between release peaks of quercetin and release peaks of NMN in the microspheres are different. A time difference between a peak of the releasing of quercetin and a peak of the releasing of NMN in the controlled-release NMN microsphere 1 is 1 h-2 h, a time difference between a peak of the releasing of quercetin and a peak of the releasing of NMN in the controlled-release NMN microsphere 2 is 0.5 h-1.5 h, and a time difference between a peak of the releasing of quercetin and a peak of the releasing of NMN in the controlled-release NMN microsphere 3 is 0 h-1 h.
SMILES,level of NAD+ in the rat compared with the blank group (in words) [1],NAD+ level in blood ([1]; 2 h) [µM],NAD+ level in blood ([1]; 2.5 h) [µM],NAD+ level in blood ([1]; 3 h) [µM],NAD+ level in blood ([1]; 3.5 h) [µM],NAD+ level in blood ([1]; 4 h) [µM],NAD+ level in blood ([1]; 4.5 h) [µM],NAD+ level in blood ([1]; 5 h) [µM],NAD+ level in blood ([1]; 5.5 h) [µM],NAD+ level in blood ([1]; 6 h) [µM],level of NAD+ in the rat compared with the blank group (in words) [2],NAD+ level in blood ([2]; 2 h) [µM],NAD+ level in blood ([2]; 2.5 h) [µM],NAD+ level in blood ([2]; 3 h) [µM],NAD+ level in blood ([2]; 3.5 h) [µM],NAD+ level in blood ([2]; 4 h) [µM],NAD+ level in blood ([2]; 4.5 h) [µM],NAD+ level in blood ([2]; 5 h) [µM],NAD+ level in blood ([2]; 5.5 h) [µM],NAD+ level in blood ([2]; 6 h) [µM],further results
"NC(=O)c1ccc[n+]([C@@H]2O[C@H](COP(=O)([O-])O)[C@@H](O)[C@H]2O)c1 [NMN, nicotinamide mononucleotide]",can increase the level of NAD+ in the rat,134,193,153,168,142,137,131,138,134,can increase the level of NAD+ in the rat,133,197,168,159,143,148,139,144,140,level of NAD+ in the rat compared with the blank group (in words) [3]: can increase the level of NAD+ in the rat; NAD+ level in blood ([3]; 2 h): 139 µM; NAD+ level in blood ([3]; 2.5 h): 207 µM; NAD+ level in blood ([3]; 3 h): 173 µM; NAD+ level in blood ([3]; 3.5 h): 159 µM; NAD+ level in blood ([3]; 4 h): 150 µM; NAD+ level in blood ([3]; 4.5 h): 145 µM; NAD+ level in blood ([3]; 5 h): 148 µM; NAD+ level in blood ([3]; 5.5 h): 152 µM; NAD+ level in blood ([3]; 6 h): 147 µM
"O=c1c(O)c(-c2ccc(O)c(O)c2)oc2cc(O)cc(O)c12 [Quercetin, quercetin]",can increase the level of NAD+ in the rat,121,140,176,158,146,138,141,124,132,can increase the level of NAD+ in the rat,127,146,180,164,151,144,147,130,137,level of NAD+ in the rat compared with the blank group (in words) [3]: can increase the level of NAD+ in the rat; NAD+ level in blood ([3]; 2 h): 145 µM; NAD+ level in blood ([3]; 2.5 h): 152 µM; NAD+ level in blood ([3]; 3 h): 178 µM; NAD+ level in blood ([3]; 3.5 h): 160 µM; NAD+ level in blood ([3]; 4 h): 147 µM; NAD+ level in blood ([3]; 4.5 h): 150 µM; NAD+ level in blood ([3]; 5 h): 151 µM; NAD+ level in blood ([3]; 5.5 h): 144 µM; NAD+ level in blood ([3]; 6 h): 149 µM
